Measurements from PMC7603451, “A novel human pluripotent stem cell-based assay to predict developmental toxicity” (Archives of Toxicology, 2020).
Read-outs that look alike come from different tables or passages of the source.

Assays:
[1] = tested on: BIONi010-C hiPSC embryoid bodies differentiating into cardiomyocytes; test: PluriBeat assay, beat score of EBs, BIONi010-C
Description: (§1) Cardiac differentiation was performed as published (Fischer et al. [2018]) with slight modifications. Briefly, hiPSC were harvested from culture dishes with good colony morphology (day 5–6 after split) by removing medium and adding Gibco™ TrypLE™ Select (Thermo Fisher Scientific) for 1–2 min. As soon as single cells appeared at the borders of the colonies, TrypLE was removed by suction and the cells harvested as single cells in mTeSR-ROCK (mTeSR1 with 10 µM Y27632 dihydrochloride). Cells were counted and 5 × 10^4 cells/ml were seeded at 100 µl per well into a 96-well Polystyrene Conical Bottom MicroWell™ Plate (249,952, Thermo Fisher Scientific). The plates were centrifuged at 500g for 5 min at room temperature. After 20 h of incubation, EBs had formed (one EB per well) and cardiac differentiation was induced by exchanging 80 µl medium to D0 medium. All medium recipes are included in supplementary Table 1. After 24 ± 2 h, 80 µl medium was exchanged to TS medium. After 24 ± 2 h, 80 µl medium were exchanged to Wnt medium. After 24 ± 2 h, 80 µl medium was exchanged with TS medium. Three days later (72 ± 2 h), 60 µl medium was exchanged with 80 µl fresh TS medium added per well. The following day beating of the cardiomyocyte containing EBs was scored.
(§2) Test compounds were added to the specific daily differentiation medium before medium exchange on the 96-well plates. Vehicle was kept constant across the plates at 0.1%. Thirty-two EBs were exposed to each concentration in each experiment. On the last day of the assay, the beat score was determined as follows: Each EB was observed until contraction was seen, though for a maximum of 10 s. If no movement was seen, the beat score 0 was given. If the entire area of the sphere contracted, a beat score of 2 was given. Everything in between was given a score of 1.
(§3) The beat score for each condition was determined as the average beat score of the 32 EBs. All experiments were performed in biological triplicates if not stated otherwise. For gene expression analysis and compound testing, data from 32 EBs (= 32 wells each containing one EB) were analyzed for a given concentration or time point.
(§4) IC25 values were defined as absolute IC25 values giving the concentration that inhibits the beat score by 25%. […] Calculations were based on the beat score of > 90 EBs from three independent experiments per cell line.
(§5) The following analysis was performed in the statistical program R-studio: To analyze the impact of the test compounds on the beat score, we performed an ordinal logistic regression using the polr package in R with beat score and concentration as factors on n ≥ 90 EBs from three biological replicates. The LOEC was defined as the lowest observable effect concentration of test compound causing an effect with a p value < 0.05.

[2] = tested on: IMR90-1 hiPSC embryoid bodies differentiating into cardiomyocytes; test: PluriBeat assay, beat score of EBs, IMR90-1
Description: as §1, §2, §3, §4, §5

[3] = tested on: IMR90-4 hiPSC embryoid bodies differentiating into cardiomyocytes; test: PluriBeat assay, beat score of EBs, IMR90-4; settings: for effect on beat score: up to maximum concentration tested
Description: as §1, §2, §3, §4, §5

[4] = tested on: BIONi010-C hiPSC grown in monolayer; test: Cytotoxicity, CellTiter-Glo 2.0 ATP-based cell viability assay; set-up: species or system human; settings: for concentration showing cytotoxicity: human, 48 h
Description: Before initiating tests on cardiomyocyte differentiation for test chemicals, cell viability was determined to ascertain that any further testing was done at non-cytotoxic concentrations. On the day of the experiment, 50 µl/well hESC-Qualified Matrigel (354,277, Corning) was added to flat-bottom 96-well plates (Corning) and incubated at 37 °C and 95% humidity until use. BIONi010-C hiPSC were harvested from a […] by Gibco™ TrypLE™ Select (Thermo Fisher Scientific) and a single-cell suspension was prepared in mTeSR™1 serum-free medium (STEMCELL Technologies). Matrigel was removed from plates and a final concentration of 1 × 10^4 cells/well was added. After 24 h, mTESR1 medium was exchanged for fresh medium. Cell were exposed to the test chemicals after another 24 h and for 48 h in total with a vehicle kept constant across the plates at 0.1%. […] Assay reagent (100 µl/well) was added, plates were left on a shaker table for 2 min and successively for 10 min at room temperature. Lysates were transferred to white plates and luminescence was measured (EnSpire, Perkin Elmer).

BIONi010-C EBs = test: EB volume after exposure, BIONi010-C; assay type: cell-based, human
Description: (§6) The average of 32 EBs per condition was analyzed. […] EB size was analysed using a one-way ANOVA without matching and multiple comparisons with Dunnett’s correction.

IMR90-1 EBs = test: EB volume after exposure, IMR90-1; assay type: cell-based, human; settings: for concentration with effect on EB volume: IMR90-1, last day of assay
Description: as §6

IMR90-4 EBs = test: EB volume after exposure, IMR90-4; assay type: cell-based, human; settings: for concentration with effect on EB volume: IMR90-4, last day of assay
Description: as §6

[5] = tested on: EBs made from the three cell lines BIONi010-C, IMR90-1, and IMR90-4; test: PluriBeat assay, statements without a named cell line
Description: as §2
For analysis of the EB size, the EBs were imaged with a light microscope after assessing the beat score. The plates were left at room temperature to decrease the beat rate before imaging, thereby decreasing the risk of false small outliers due to contractions. The images were further analyzed with ImageJ, where the diameter of the individual EBs was measured manually. From this, the volume of each EB was calculated and the average of the controls on each plate set to 100% to calculate the volume (%) for the exposed EBs. The average of 32 EBs per condition was analyzed.

mouse ESCs = settings: cited from earlier work
hiPSC = settings: cited from earlier work
hESCs = tested on: hESCs; set-up: method as in Kameoka et al. [2014]; settings: hESC monolayer, 3 days; ref Kameoka et al. [2014]; cited from earlier work
[6] = cited from earlier work
[7] = tested on: in vitro assays for developmental toxicity; settings: previous in vitro developmental toxicity studies, cited from earlier work
rat embryos = tested on: rat embryos; set-up: method as in Rettie et al. [1986]; settings: ex vivo rat embryos, gestation day 10; ref Rettie et al. [1986]; cited from earlier work
[8] = IMR90-4, beat score on last day of assay, lowest concentration with p < 0.05
[9] = human, 8 days (beat score read on the last day of the assay)

Fc1ccc([C@]2(Cn3cncn3)O[C@H]2c2ccccc2Cl)cc1 (racemic) [Epoxiconazole, epoxiconazole]
LOEC ([1]; BIONi010-C, beat score on last day of assay, lowest concentration with p < 0.05): 5 µM | LOEC ([2]; IMR90-1, beat score on last day of assay, lowest concentration with p < 0.05): 1.3 µM | concentration at which EBs stopped beating ([2]; human, 7 days): 2.5 µM | LOEC [3, 8]: 1.3 µM | concentration at which EBs stopped beating ([3]; human, 7 days): 2.5 µM | concentration showing cytotoxicity [4]: ≥ 50 µM | effect on EB volume (BIONi010-C EBs): significantly smaller spheres | effect on EB volume (IMR90-1 EBs): non-significant trend | effect on EB volume (IMR90-4 EBs): significantly smaller spheres | lowest concentration decreasing the beating (LOEC) ([5]; beat score, cell line not stated): 1.3 µM | proportion of beating cardiac EBs [5, 9]: ~0% | embryotoxicity in the mEST (mouse ESCs): weakly embryotoxic | IC50 (mouse ESCs; mEST based on mouse ESCs, ref Dreisig et al. [2013]): 34 µM

O=C1CCC(N2C(=O)c3ccccc3C2=O)C(=O)N1 (stereo not shown) [Thalidomide, thalidomide]
LOEC ([1]; human, 7 days): 2.3 µM | LOEC ([2]; human, 7 days): 2.3 µM | LOEC [3, 8]: no LOEC could be determined | effect on beat score ([3]; IMR90-4): non-significant trend | IC25 (absolute inhibition concentration of 25%) with 95% confidence intervals ([3]; human, 7 days): > 36 µM | LOEC ([3]; human, 7 days): > 36 µM | effect on viability ([4]; BIONi010-C monolayer, 48 h exposure, 25, 50, 100 and 200 µM): did not reduce viability in any of the concentrations tested | concentration showing cytotoxicity [4]: > 200 µM | concentration with significant decrease in EB volume (BIONi010-C EBs; BIONi010-C, last day of assay): ≥ 2.3 µM | concentration with effect on EB volume (IMR90-1 EBs): ≥ 2.3 µM | concentration with effect on EB volume (IMR90-4 EBs): ≥ 18 µM | decrease of EB volume ([5]; human, 7 days, 2.3 µM): ~60% | lowest concentration decreasing the beating (LOEC) [5, 9]: 2.3 µM | IC50 (hiPSC; original EST protocol, ref Aikawa et al. [2014]): 450 µM | IC50 (hiPSC; ref Aikawa [2020]): 5.5 µM | IC50 (hESCs): 500 nM | clinical plasma concentrations for therapeutic use ([6]; human, ref Chung et al. [2004], Kodama et al. [2009]): 1 to 6 µM | internal exposure ([6]; regular dose for pregnant women of 200 mg, ref Teo et al. [2004]): 4.7 µM

CCCC(CCC)C(=O)O [Valproic acid, valproic acid]
effect on beat score ([1]; BIONi010-C, up to maximum concentration tested): did not lead to a significant decrease in beat score | IC25 (absolute inhibition concentration of 25%) with 95% confidence intervals ([1]; human, 7 days): > 300 µM | LOEC ([1]; human, 7 days): > 300 µM | effect on beat score ([2]; IMR90-1, up to maximum concentration tested): did not lead to a significant decrease in beat score | IC25 (absolute inhibition concentration of 25%) with 95% confidence intervals ([2]; human, 7 days): > 300 µM | LOEC ([2]; human, 7 days): > 300 µM | effect on beat score ([3]; IMR90-4): did not lead to a significant decrease in beat score | IC25 (absolute inhibition concentration of 25%) with 95% confidence intervals ([3]; human, 7 days): > 300 µM | LOEC ([3]; human, 7 days): > 300 µM | reduction of viability ([4]; BIONi010-C monolayer, 48 h exposure, 400 µM): more than 20% | concentration showing cytotoxicity [4]: above 300 µM | effect on EB volume (BIONi010-C EBs; BIONi010-C, last day of assay): did not lead to apparent effects | concentration with effect on EB volume (IMR90-1 EBs): 200 µM | concentration with effect on EB volume (IMR90-4 EBs): 300 µM | IC50 ([7]; ref Aikawa et al. [2014], Shinde et al. [2016]): 868 to 1000 µM | IC50 ([7]; ref Uibel et al. [2010], Palmer et al. [2013], Kameoka et al. [2014], Aikawa [2020]): 3 to 205 µM | therapeutic serum levels ([6]; human, ref Dasgupta [2016]): around 700 µM | concentration with toxic effects (rat embryos): 800 µM
